Several values for one entry are separate records, joined by “and”; a condition that tells them apart may be missing. Equal values may be shown once.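 In this assay, cells in 96-well plates receive the compound at five concentrations for 48 hours. Endpoints are linearly interpolated between the surrounding concentrations. Here, GI50 denotes the concentration required for 50% inhibition of growth. The concentration for full growth arrest is given as TGI.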
Tests used:
Test in all cases: NCI anticancer screen, dose series, 48 h
A498 renal = test system: A498 renal
ACHN renal = test system: ACHN renal
COLO 205 colon = test system: COLO 205 colon
HCT-116 colon = test system: HCT-116 colon
HCT-15 colon = test system: HCT-15 colon
PC-3 prostate = test system: PC-3 prostate
SK-MEL-5 melanoma = test system: SK-MEL-5 melanoma
SR leukemia = test system: SR leukemia
SW-620 colon = test system: SW-620 colon
UO-31 renal = test system: UO-31 renal

SMILES	GI50 (A498 renal)	TGI (A498 renal) [µM]	GI50 (ACHN renal) [µM]	TGI (ACHN renal) [µM]	GI50 (COLO 205 colon)	TGI (COLO 205 colon)	GI50 (HCT-116 colon)	TGI (HCT-116 colon)	GI50 (HCT-15 colon)	TGI (HCT-15 colon) [µM]	GI50 (PC-3 prostate)	TGI (PC-3 prostate) [µM]	GI50 (SK-MEL-5 melanoma)	TGI (SK-MEL-5 melanoma)	GI50 (SR leukemia)	TGI (SR leukemia) [µM]	GI50 (SW-620 colon)	TGI (SW-620 colon) [µM]	GI50 (UO-31 renal)	TGI (UO-31 renal) [µM]
Nc1ccccc1C#C/C=C\C#CC#C/C=C\C#Cc1ccccc1N	5.36 µM	20.6	5.38	40.4	13.5 µM	35.9 µM	3.84 µM	15.9 µM	3.74 µM	24.2	2.59 µM	16.5	8.43 µM	22.9 µM	1.42 µM	7	7.54 µM	30.7	1.94 µM	16.8
CCOC(=O)C(Cc1c[nH]c2cc(N(CCO)CCO)ccc12)(NC(C)=O)C(=O)OCC	570 µM	> 1000	481	> 1000	274 µM	> 1000 µM	325 µM	> 1000 µM	758 µM	> 1000	94.9 µM and 160 µM	> 1000		> 1000 µM	16.8 µM and 34.6 µM		398 µM	> 1000	673 µM	> 1000
CC(C)(C)OC(=O)NCCCCn1c2c(c3ccccc3c1=O)C(=O)c1ccccc1-2	23.4 µM	65.3	15.7	50.2	44 µM	> 100 µM	5.21 µM	> 100 µM	35.3 µM	> 100	8.71 µM	> 100			3.59 µM	42.4	25.3 µM	> 100	8.29 µM	> 100
CC(C)(C)c1cc(C(=O)Nc2ccc(C(=O)NCCN)cc2)cc(C(C)(C)C)c1	8.27 µM	26	4.45	18.7	1.85 µM	3.77 µM	3.36 µM	12.7 µM	4.75 µM	19.4	3.07 µM	11	1.74 µM	3.15 µM	1.47 µM	4.82	1.84 µM	3.65	4.68 µM	22
Cc1ccc(S(=O)(=O)OCC#CCOS(=O)(=O)c2ccc(C)cc2)cc1	4.34 µM	11.7	2.27	5.94	2.42 µM	5.72 µM	2.08 µM	5.47 µM	3.2 µM	14.9	1.79 µM	3.6	3.69 µM	9.96 µM	1.27 µM	3.89	1.8 µM	3.96	0.228 µM	0.538
N#Cc1ccc(-c2c(-c3ncn[nH]3)sc(N3CCOCC3)c2C#N)c(F)c1	0.0225 µM	0.206	0.398		0.687 µM	15.6 µM	0.553 µM	37.6 µM	0.596 µM	18.5	0.345 µM	20.3	2.29 µM	13.7 µM	1.88 µM	19.8	2.94 µM	29.9	0.191 µM	11.2
O=[N+]([O-])c1cccc(-c2nc(-c3ccc(Cl)cc3Cl)cn2-c2ccccc2)c1		> 9.06	1.3	5.42	0.485 µM	0.987 µM	0.855 µM	2.02 µM	1.13 µM	> 23.2	0.391 µM	10.8	6.78 µM	> 33.3 µM	1.24 µM	> 33.3	0.617 µM	1.22	1.19 µM	7.29
OB(O)c1ccccc1C#Cc1ccccc1B(O)O		15.6		> 100		35.1 µM		58.4 µM		> 100		> 100		31.9 µM		> 100		> 100		60.5
CNCC/C=C1\c2cc3c(cc2-c2c1c1cc(OC)c(OC)cc1c(=O)n2C)OCO3	2.97 µM	12	0.167	2.21	1.73 µM	41.2 µM	0.0679 µM		0.585 µM	13	0.534 µM	10.3	0.548 µM	2.89 µM	< 0.01 µM		< 0.0142 µM	16.4	0.548 µM	> 100
C/C=C/C/C=C/[C@H](C)C[C@H](O)[C@@H]1C[C@@H]2O[C@H]2/C=C/[C@@H]2OC(C)(C)O[C@H]2/C=C/C[C@H](C)CC(=O)O1	> 100 µM	> 100	6.05	> 100	8.02 µM	> 100 µM	8.85 µM	> 100 µM	4.84 µM	> 100	5.75 µM	> 100	4.39 µM	44 µM	8.08 µM	> 100	22.7 µM	> 100	3.01 µM	18.7
CCOC(=O)Nc1nc2ccccc2[nH]1	2.42 µM and 3.81 µM	> 28.8	6.56	> 100	3.62 µM and 3.27 µM	15.2 µM and > 32.6 µM	5.34 µM and 4.52 µM	> 100 µM	3.89 µM and 4.14 µM	> 100	6.6 µM and 4.07 µM	> 100	3.5 µM and 2.55 µM	> 100 µM	2.64 µM and 1.1 µM	> 100	3.9 µM and 3.17 µM	> 100	5.8 µM and 5.34 µM	> 100
Cc1cc(C(=O)Nc2n[nH]c3ccccc23)n[nH]1	> 100 µM	> 100	> 100	> 100	> 100 µM	> 100 µM	> 100 µM	> 100 µM	> 100 µM	> 100	> 100 µM	> 100	> 100 µM	> 100 µM	80.6 µM	> 100	> 100 µM	> 100	50.4 µM	> 100
Nc1ncnc2c1ncn2C1OC(COS(N)(=O)=O)C(O)C1O (stereo unspecified)	0.0164 µM	0.0344			0.00239 µM and 0.0219 µM	0.00508 µM and 0.0432 µM	0.00252 µM and 0.0248 µM	0.0156 µM and 0.0656 µM	0.00255 µM	0.0071	0.0243 µM	0.0587	0.00177 µM and 0.0175 µM	0.00336 µM and 0.0321 µM	< 0.001 µM	0.0136				

— PubChem BioAssay (NCI)
